Measured values as given in ChEMBL document CHEMBL1153052, “Identification of new Hsp90 inhibitors by structure-based virtual screening” (Bioorg Med Chem Lett, 2009).
pIC50: −log10 of the molar value. The source made the active and inactive calls. No cut-off for these calls is given here.

How the values were obtained:
[1] = molecular target: T1, Heat shock protein HSP90 (Homo sapiens) (UniProt P07900+P08238); assay: Inhibition of Hsp90 in human MCF7 cells assessed as induction of Hsp70 expression at 20 to 40 uM after 24 hrs by Western blotting; format: cell-based
[2] = molecular target: T1, Heat shock protein HSP90 (Homo sapiens); assay: Inhibition of Hsp90 in human MCF7 cells assessed as Her2 degradation at 20 to 40 uM after 24 hrs by Western blotting; format: cell-based
[3] = system: MCF7; assay: Cytotoxicity against human MCF7 cells by SRB assay; format: functional, cell-based
[4] = molecular target: ATP-dependent molecular chaperone HSP82 (Saccharomyces cerevisiae S288c, UniProt P02829); assay: Inhibition of yeast Hsp90 ATPase activity by ATPase assay using malachite green colorimetric method
Chain of ATP-dependent molecular chaperone HSP82 (P02829 whole entry): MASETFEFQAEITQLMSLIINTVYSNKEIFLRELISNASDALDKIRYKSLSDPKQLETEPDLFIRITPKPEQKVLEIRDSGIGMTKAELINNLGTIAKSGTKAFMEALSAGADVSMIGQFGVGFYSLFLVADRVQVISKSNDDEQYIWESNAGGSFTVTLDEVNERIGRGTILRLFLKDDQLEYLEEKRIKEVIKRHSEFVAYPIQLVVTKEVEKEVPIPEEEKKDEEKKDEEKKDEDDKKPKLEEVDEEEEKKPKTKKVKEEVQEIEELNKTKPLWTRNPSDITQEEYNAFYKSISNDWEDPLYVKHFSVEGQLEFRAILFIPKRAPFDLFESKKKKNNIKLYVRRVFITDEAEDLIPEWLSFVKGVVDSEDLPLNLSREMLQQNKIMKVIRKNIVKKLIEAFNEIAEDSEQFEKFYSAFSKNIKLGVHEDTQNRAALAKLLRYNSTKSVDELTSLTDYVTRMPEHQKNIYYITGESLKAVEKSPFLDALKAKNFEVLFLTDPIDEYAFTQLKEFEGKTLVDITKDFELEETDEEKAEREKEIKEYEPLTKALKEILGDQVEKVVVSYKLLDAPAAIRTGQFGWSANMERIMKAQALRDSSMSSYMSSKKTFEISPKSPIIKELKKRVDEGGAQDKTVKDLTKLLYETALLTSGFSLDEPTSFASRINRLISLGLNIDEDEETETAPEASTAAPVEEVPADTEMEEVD

How did the Activity [1] turn out when `COc1ccc(-c2cc(-c3nnc(S)n3-c3cccc4ccccc34)[nH]n2)cc1` was run?
Its Activity is “inactive”.

What about the Activity [2] of the same compound?
The Activity was “Active”.

`COC1=C2C[C@@H](C)C[C@H](OC)[C@H](O)[C@@H](C)/C=C(\C)[C@H](OC(N)=O)[C@@H](OC)/C=C\C=C(/C)C(=O)NC(=CC1=O)C2=O` [GELDANAMYCIN] was tested. Which pIC50 [3] did it give?
The pIC50 was 5.02.

`O=C(CSc1nnc(-c2cccnc2)n1-c1ccccc1)NCc1ccccc1` was tested. Which Activity [1] did it give?
The Activity was “inactive”.

What about the Activity [2] of the same compound?
The Activity was “Active”.

`O=C1NC(=O)N(c2ccccc2F)C(=O)/C1=C\c1cn(Cc2ccccc2)c2ccccc12` was tested. Which pIC50 [4] did it give?
The pIC50 was 4.61.

What about the Activity [1] of the same compound?
The Activity was “Active”.

And the Activity [2]?
Its Activity is “Active”.

What about the pIC50 [3] of the same compound?
Its pIC50 is 4.74.

With `O=C(CSc1nnc(-c2ccc3c(c2)OCO3)n1-c1ccccc1)c1ccccc1` as the compound, how does the pIC50 [4] read?
Its pIC50 is 4.81.

What about the Activity [1] of the same compound?
Its Activity is “inactive”.

What about the Activity [2] of the same compound?
Its Activity is “Active”.

And the pIC50 [3]?
Its pIC50 is 4.35.

Which Activity [1] does the source give for `CCOc1cc(/C=C2\C(=O)NC(=O)N(Cc3ccccc3)C2=O)ccc1O` here?
Its Activity is “inactive”.

With `Cc1cccc(N2C(=O)NC(=O)/C(=C/c3ccccc3OCC(=O)O)C2=O)c1` as the compound, how does the Activity [1] read?
Its Activity is “inactive”.

What about the Activity [2] of the same compound?
The Activity was “Active”.
